PMC6120666 (The EMBO Journal, 2018)

How the values were obtained:
Test in all cases: Drug affinity chromatography with c-ponatinib and LC-MS/MS (ponatinib interactome)
Assay type in all cases: binding
[1] = target: T1, proteins of U2OS cell lysate (Homo sapiens, UniProt P62851); details: RPS25, 40S ribosomal protein S25
T1 construct: Proteins enriched by c-ponatinib from U2OS cell lysate; endogenous in cells; host or cells: U2OS cell lysate
In short: (§1)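 Proteins were identified by nano-UPLC–MS/MS after elution with formic acid and trypsin digestion. They were captured from U2OS lysate (2 mg protein per pulldown, NP-40 buffer) on amine-coupled NHS beads during a 2 h incubation at 4 °C.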

[2] = target: T2, proteins of U2OS cell lysate (Homo sapiens, UniProt P13861); details: PRKAR2A, cAMP-dependent protein kinase type II-alpha regulatory subunit
T2 construct: Proteins enriched by c-ponatinib from U2OS cell lysate; endogenous in cells; host or cells: U2OS cell lysate
In short: as §1

[3] = target: T3, proteins of U2OS cell lysate (Homo sapiens, UniProt P21333); details: FLNA, Filamin-A
T3 construct: Proteins enriched by c-ponatinib from U2OS cell lysate; endogenous in cells; host or cells: U2OS cell lysate
T3 sequence (P21333 whole entry): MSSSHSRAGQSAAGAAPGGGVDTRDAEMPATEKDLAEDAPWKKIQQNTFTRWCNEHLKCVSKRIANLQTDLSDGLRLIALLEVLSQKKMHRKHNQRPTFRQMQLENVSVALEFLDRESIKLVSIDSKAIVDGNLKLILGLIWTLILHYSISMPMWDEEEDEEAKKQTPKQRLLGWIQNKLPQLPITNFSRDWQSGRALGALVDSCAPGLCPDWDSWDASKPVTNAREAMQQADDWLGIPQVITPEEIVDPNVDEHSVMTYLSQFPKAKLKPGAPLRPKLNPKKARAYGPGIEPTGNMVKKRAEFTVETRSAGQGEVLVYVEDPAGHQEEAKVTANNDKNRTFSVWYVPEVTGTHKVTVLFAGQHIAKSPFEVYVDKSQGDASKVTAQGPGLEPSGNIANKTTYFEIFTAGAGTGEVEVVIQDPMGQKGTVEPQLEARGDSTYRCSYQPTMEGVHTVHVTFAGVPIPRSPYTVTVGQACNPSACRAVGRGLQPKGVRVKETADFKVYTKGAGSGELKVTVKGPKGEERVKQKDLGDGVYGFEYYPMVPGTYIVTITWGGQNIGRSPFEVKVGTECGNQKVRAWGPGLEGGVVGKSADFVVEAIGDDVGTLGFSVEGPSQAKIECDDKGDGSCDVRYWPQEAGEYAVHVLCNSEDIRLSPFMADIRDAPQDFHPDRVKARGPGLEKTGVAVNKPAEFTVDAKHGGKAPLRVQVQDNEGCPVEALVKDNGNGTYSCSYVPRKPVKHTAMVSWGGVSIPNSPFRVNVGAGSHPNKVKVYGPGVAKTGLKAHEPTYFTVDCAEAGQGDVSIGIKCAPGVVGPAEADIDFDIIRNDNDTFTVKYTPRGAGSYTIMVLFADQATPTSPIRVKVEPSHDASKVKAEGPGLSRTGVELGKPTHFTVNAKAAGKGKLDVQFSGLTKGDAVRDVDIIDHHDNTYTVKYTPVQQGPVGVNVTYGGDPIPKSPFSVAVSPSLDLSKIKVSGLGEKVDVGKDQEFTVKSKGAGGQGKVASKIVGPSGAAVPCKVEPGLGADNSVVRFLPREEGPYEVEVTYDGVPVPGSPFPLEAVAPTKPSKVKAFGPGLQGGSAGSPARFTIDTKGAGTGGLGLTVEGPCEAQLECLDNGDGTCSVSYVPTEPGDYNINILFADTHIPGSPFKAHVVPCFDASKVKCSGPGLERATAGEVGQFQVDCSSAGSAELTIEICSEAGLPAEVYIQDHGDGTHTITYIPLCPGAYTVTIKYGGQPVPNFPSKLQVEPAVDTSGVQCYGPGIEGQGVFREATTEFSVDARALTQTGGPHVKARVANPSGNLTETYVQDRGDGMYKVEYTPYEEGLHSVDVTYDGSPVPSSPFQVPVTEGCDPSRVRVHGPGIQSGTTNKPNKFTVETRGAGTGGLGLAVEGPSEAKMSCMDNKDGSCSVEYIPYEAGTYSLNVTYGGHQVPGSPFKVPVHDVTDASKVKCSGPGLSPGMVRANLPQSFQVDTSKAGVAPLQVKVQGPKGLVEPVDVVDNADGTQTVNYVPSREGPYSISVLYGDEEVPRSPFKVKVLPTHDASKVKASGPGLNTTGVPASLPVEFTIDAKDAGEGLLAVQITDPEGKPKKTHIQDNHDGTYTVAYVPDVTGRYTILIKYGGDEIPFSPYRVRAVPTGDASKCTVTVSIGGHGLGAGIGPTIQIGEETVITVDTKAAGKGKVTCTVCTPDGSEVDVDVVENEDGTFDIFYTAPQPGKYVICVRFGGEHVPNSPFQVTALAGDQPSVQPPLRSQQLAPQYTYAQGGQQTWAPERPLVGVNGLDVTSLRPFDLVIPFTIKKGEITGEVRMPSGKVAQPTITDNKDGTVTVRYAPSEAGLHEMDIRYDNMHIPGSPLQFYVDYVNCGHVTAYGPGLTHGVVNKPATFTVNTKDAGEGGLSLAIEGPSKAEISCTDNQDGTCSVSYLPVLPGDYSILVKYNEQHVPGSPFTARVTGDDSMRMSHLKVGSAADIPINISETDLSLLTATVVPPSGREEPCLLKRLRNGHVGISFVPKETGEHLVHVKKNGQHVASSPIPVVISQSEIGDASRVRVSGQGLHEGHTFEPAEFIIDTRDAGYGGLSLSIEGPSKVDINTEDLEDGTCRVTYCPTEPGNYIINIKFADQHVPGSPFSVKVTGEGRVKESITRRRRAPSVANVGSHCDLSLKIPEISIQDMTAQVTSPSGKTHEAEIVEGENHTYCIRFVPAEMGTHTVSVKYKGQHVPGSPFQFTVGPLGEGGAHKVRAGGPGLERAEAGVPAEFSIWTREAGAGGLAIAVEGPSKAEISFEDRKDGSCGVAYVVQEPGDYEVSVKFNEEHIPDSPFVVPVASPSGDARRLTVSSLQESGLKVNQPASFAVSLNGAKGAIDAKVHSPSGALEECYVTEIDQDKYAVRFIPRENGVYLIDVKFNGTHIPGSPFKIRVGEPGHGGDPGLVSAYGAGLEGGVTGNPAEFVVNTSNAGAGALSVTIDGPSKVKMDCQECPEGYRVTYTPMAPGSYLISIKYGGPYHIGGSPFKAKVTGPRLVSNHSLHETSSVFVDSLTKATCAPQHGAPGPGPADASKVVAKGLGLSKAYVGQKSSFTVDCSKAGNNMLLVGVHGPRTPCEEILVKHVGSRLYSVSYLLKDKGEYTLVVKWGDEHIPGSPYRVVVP
In short: as §1

[4] = target: T4, proteins of U2OS cell lysate (Homo sapiens, UniProt P09038); details: FGF2, Fibroblast growth factor 2
T4 construct: Proteins enriched by c-ponatinib from U2OS cell lysate; endogenous in cells; host or cells: U2OS cell lysate
In short: as §1

[5] = target: T5, proteins of U2OS cell lysate (Homo sapiens, UniProt Q13813); details: SPTAN1, Spectrin alpha chain, non-erythrocytic 1
T5 construct: Proteins enriched by c-ponatinib from U2OS cell lysate; endogenous in cells; host or cells: U2OS cell lysate
In short: as §1

[6] = target: T6, proteins of U2OS cell lysate (Homo sapiens, UniProt P22234); details: PAICS, Multifunctional protein ADE2
T6 construct: Proteins enriched by c-ponatinib from U2OS cell lysate; endogenous in cells; host or cells: U2OS cell lysate
In short: as §1

[7] = target: T7, proteins of U2OS cell lysate (Homo sapiens, UniProt P62081); details: RPS7, 40S ribosomal protein S7
T7 construct: Proteins enriched by c-ponatinib from U2OS cell lysate; endogenous in cells; host or cells: U2OS cell lysate
In short: as §1

[8] = target: T8, proteins of U2OS cell lysate (Homo sapiens, UniProt P78527); details: PRKDC, DNA-dependent protein kinase catalytic subunit
T8 construct: Proteins enriched by c-ponatinib from U2OS cell lysate; endogenous in cells; host or cells: U2OS cell lysate
In short: as §1

[9] = target: T9, proteins of U2OS cell lysate (Homo sapiens, UniProt P49773); details: HINT1, Histidine triad nucleotide-binding protein 1
T9 construct: Proteins enriched by c-ponatinib from U2OS cell lysate; endogenous in cells; host or cells: U2OS cell lysate
In short: as §1

[10] = target: T10, proteins of U2OS cell lysate (Homo sapiens, UniProt P61964); details: WDR5, WD repeat-containing protein 5
T10 construct: Proteins enriched by c-ponatinib from U2OS cell lysate; endogenous in cells; host or cells: U2OS cell lysate
In short: as §1

[11] = target: T11, proteins of U2OS cell lysate (Homo sapiens, UniProt Q12851); details: MAP4K2, Mitogen-activated protein kinase kinase kinase kinase 2
T11 construct: Proteins enriched by c-ponatinib from U2OS cell lysate; endogenous in cells; host or cells: U2OS cell lysate
T11 sequence (Q12851 whole entry): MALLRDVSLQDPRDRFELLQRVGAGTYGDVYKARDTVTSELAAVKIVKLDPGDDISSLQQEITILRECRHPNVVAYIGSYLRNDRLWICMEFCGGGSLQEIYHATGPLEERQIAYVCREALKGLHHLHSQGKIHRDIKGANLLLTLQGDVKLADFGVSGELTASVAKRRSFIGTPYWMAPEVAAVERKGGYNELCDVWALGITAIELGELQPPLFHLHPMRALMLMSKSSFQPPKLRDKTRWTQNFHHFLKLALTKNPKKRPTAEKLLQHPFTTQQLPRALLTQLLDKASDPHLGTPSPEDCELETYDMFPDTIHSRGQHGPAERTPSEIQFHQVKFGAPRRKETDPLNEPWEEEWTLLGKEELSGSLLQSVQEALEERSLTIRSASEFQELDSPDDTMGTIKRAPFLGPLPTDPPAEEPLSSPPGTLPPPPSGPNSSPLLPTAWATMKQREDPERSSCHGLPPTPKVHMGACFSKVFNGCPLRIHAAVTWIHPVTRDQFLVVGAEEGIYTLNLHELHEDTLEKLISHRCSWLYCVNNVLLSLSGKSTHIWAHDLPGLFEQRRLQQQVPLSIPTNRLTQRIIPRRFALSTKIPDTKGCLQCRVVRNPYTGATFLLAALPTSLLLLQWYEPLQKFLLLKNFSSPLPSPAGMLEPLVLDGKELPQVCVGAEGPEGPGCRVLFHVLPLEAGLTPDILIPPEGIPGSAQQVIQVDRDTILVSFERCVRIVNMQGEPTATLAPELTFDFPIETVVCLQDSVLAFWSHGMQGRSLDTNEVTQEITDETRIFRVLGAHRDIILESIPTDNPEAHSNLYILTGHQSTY
In short: as §1

[12] = target: T12, proteins of U2OS cell lysate (Homo sapiens, UniProt O43353); details: RIPK2, Receptor-interacting serine/threonine-protein kinase 2
T12 construct: Proteins enriched by c-ponatinib from U2OS cell lysate; endogenous in cells; host or cells: U2OS cell lysate
In short: as §1

[13] = target: T13, proteins of U2OS cell lysate (Homo sapiens, UniProt P84090); details: ERH, Enhancer of rudimentary homolog
T13 construct: Proteins enriched by c-ponatinib from U2OS cell lysate; endogenous in cells; host or cells: U2OS cell lysate
In short: as §1

[14] = target: T14, proteins of U2OS cell lysate (Homo sapiens, UniProt P54753); details: EPHB3, Ephrin type-B receptor 3
T14 construct: Proteins enriched by c-ponatinib from U2OS cell lysate; endogenous in cells; host or cells: U2OS cell lysate
In short: as §1

[15] = target: T15, proteins of U2OS cell lysate (Homo sapiens, UniProt P14314); details: PRKCSH, Glucosidase 2 subunit beta
T15 construct: Proteins enriched by c-ponatinib from U2OS cell lysate; endogenous in cells; host or cells: U2OS cell lysate
In short: as §1

[16] = target: T16, proteins of U2OS cell lysate (Homo sapiens, UniProt Q99623); details: PHB2, Prohibitin-2
T16 construct: Proteins enriched by c-ponatinib from U2OS cell lysate; endogenous in cells; host or cells: U2OS cell lysate
In short: as §1

[17] = target: T17, proteins of U2OS cell lysate (Homo sapiens, UniProt Q9NTJ3); details: SMC4, Structural maintenance of chromosomes protein 4
T17 construct: Proteins enriched by c-ponatinib from U2OS cell lysate; endogenous in cells; host or cells: U2OS cell lysate
In short: as §1

[18] = target: T18, proteins of U2OS cell lysate (Homo sapiens, UniProt Q9UHB6); details: captured protein LIMA1, Rank 120
T18 construct: Proteins enriched by c-ponatinib from U2OS cell lysate; endogenous in cells; host or cells: U2OS cell lysate
T18 sequence (Q9UHB6 whole entry): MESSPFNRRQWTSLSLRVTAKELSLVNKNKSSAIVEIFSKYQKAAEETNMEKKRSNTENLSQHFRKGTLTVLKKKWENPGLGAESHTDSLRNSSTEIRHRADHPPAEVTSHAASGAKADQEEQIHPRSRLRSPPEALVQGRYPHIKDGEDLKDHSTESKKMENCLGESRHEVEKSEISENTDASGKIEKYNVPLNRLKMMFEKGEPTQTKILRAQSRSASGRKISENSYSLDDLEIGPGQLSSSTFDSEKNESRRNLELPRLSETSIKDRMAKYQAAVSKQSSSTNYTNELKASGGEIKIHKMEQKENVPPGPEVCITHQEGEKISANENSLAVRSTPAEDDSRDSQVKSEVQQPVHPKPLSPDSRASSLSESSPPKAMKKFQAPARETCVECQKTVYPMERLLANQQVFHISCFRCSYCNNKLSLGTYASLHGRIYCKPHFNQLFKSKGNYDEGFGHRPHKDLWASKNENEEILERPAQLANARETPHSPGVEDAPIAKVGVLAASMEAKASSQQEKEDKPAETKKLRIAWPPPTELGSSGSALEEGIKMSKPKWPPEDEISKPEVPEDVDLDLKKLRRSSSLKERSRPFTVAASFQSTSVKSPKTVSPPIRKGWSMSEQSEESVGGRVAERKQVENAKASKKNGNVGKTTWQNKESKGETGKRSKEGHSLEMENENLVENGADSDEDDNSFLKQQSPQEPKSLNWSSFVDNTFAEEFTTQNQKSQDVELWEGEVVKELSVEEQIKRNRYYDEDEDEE
In short: as §1

[19] = target: T19, proteins of U2OS cell lysate (Homo sapiens, UniProt P55884); details: captured protein EIF3B, Rank 123
T19 construct: Proteins enriched by c-ponatinib from U2OS cell lysate; endogenous in cells; host or cells: U2OS cell lysate
T19 sequence (P55884 whole entry): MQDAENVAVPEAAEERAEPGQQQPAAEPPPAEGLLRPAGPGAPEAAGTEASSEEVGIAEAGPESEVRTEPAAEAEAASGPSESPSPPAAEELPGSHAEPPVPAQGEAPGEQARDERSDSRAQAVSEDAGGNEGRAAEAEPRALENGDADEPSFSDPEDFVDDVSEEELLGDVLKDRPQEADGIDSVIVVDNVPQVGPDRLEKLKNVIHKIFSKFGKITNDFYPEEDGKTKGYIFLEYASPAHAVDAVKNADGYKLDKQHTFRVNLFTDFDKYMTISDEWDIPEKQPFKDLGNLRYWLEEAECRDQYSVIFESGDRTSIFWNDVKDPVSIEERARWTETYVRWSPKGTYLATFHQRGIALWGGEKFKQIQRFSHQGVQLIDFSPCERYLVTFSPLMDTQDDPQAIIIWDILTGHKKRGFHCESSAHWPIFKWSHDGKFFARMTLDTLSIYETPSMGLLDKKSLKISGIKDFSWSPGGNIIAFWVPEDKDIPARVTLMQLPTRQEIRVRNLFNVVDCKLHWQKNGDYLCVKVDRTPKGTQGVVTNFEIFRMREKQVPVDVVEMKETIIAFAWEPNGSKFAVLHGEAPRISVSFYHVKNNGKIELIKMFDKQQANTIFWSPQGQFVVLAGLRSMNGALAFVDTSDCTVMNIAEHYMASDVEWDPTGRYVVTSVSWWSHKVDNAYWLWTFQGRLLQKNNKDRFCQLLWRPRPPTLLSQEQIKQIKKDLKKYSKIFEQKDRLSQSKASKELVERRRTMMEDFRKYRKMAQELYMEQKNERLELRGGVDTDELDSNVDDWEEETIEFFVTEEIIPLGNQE
In short: as §1

SMILES | Average LFQ PON_WT [1] | Average LFQ PON_WT [2] | Average LFQ PON_WT [3] | Average LFQ PON_WT [4] | Average LFQ PON_WT [5] | Average LFQ PON_WT [6] | Average LFQ PON_WT [7] | Average LFQ PON_WT [8] | Average LFQ PON_WT [9] | Average LFQ PON_WT [10] | Average LFQ PON_WT [11] | Average LFQ PON_WT [12] | Average LFQ PON_WT [13] | Average LFQ PON_WT [14] | Average LFQ PON_WT [15] | Average LFQ PON_WT [16] | Average LFQ PON_WT [17] | Average LFQ intensity [18] | Average LFQ intensity [19]
Cc1ccc(C(=O)Nc2ccc(CN3CCN(C)CC3)c(C(F)(F)F)c2)cc1C#Cc1cnc2cccnn12 [PON] | 23.6854 | 19.7853 | 25.7064 | 20.5832 | 24.813 | 21.2772 | 20.8944 | 25.5794 | 21.3958 | 20.2851 | 27.1188 | 27.2483 | 21.4936 | 21.3076 | 21.2991 | 28.7804 | 21.2975 |  | 
Cc1ccc(C(=O)Nc2ccc(CN3CCN(CCCN)CC3)c(C(F)(F)F)c2)cc1C#Cc1cnc2cccnn12 [c-ponatinib, reference compound] |  |  |  |  |  |  |  |  |  |  |  |  |  |  |  |  |  | 23.0824 | 23.0265
